From paper PMC6437269, “OXA-48-Mediated Ceftazidime-Avibactam Resistance Is Associated with Evolutionary Trade-Offs” (mSphere, 2019)
Converted amounts (≈) assume the structure as drawn. Where two headings read alike, the source gives them in different places.

How the values were obtained:
OXA-48:P68A [1] = biological target: T1, OXA-48:P68A (Klebsiella pneumoniae, UniProt Q6XEC0, P68A); experiment: Steady-state enzyme kinetics, OXA-48:P68A; assay type: biochemical; details: for kcat / Km: substrate hydrolysis, 25°C, pH 7.0, error = 95% CI
OXA-48:P68A [2] = biological target: T1, OXA-48:P68A; experiment: IC50 with nitrocefin as reporter substrate, OXA-48:P68A; assay type: biochemical; details: P68A compared to native OXA-48
E. coli MG1655 (MP100) = experiment: microbe, parasite or virus in culture; assay type: cell-based, Escherichia coli
Protocol: (§1) For MIC determination, single colonies were suspended in 0.9% saline buffer to a 0.5 McFarland standard and further diluted 1:100 in MH broth. Fifty microliters of the bacterial suspension was loaded onto in-house-designed and premade Sensititre microtiter plates (TREK Diagnostic Systems/Thermo Fisher Scientific, East Grinstead, United Kingdom). The plates were incubated for 20 h at 37°C. Antibiotic susceptibility testing was performed in duplicates.

[3] = tested on: MP102 (MP101 subjected to CAZ); experiment: MIC determination, MP102 (MP101 selected on CAZ); assay type: cell-based, Escherichia coli
Protocol: (§2) Ten milliliters of an MP101 culture was grown in MH broth at 37°C overnight and then centrifuged for 10 min at 4,000 × g, and the pellet was suspended in 1 ml MH broth. One hundred microliters was plated on MH agar containing increasing concentrations of either CAZ alone or in combination with AVI up to 2 mg/liter. For CAZ-AVI, we utilized the clinical ratio of 4:1, respectively. Colonies growing on the highest concentration were recovered and grown in a fresh overnight culture (MH broth) and subsequently plated on concentrations of CAZ or CAZ-AVI up to 32 mg/liter.
as §1

[4] = tested on: MP107 (MP100 transformed with p50579417_3_OXA-48-CAZ); experiment: MIC determination, MP107 (MG1655 with CAZ-adapted plasmid); assay type: cell-based; details: Escherichia coli; Table 6; MP107, adapted plasmid p50579417-OXA-48-CAZ
Protocol: as §1

[5] = tested on: MP105 (E. coli TOP10 expressing OXA-48:P68A); experiment: microbe, parasite or virus in culture; assay type: cell-based; details: for MIC: Escherichia coli, Table 3, MP105, OXA-48:P68A in pCR-blunt II TOPO
[6] = tested on: MP108 (MP100 transformed with p50579417_3_OXA-48-CAZ-AVI); experiment: MIC determination, MP108 (MG1655 with CAZ-AVI-adapted plasmid); assay type: cell-based; details: Escherichia coli; Table 6; MP108, adapted plasmid p50579417-OXA-48-CAZ-AVI
Protocol: as §1

[7] = tested on: MP101 (MP100 transformed with p50579417_3_OXA-48); experiment: MIC determination, MP101 (MG1655 with native OXA-48 plasmid); assay type: cell-based, Escherichia coli
Text: Mueller-Hinton (MH) agar and broth were purchased from Thermo Fisher Scientific (East Grinstead, United Kingdom). Luria-Bertani (LB) broth, LB agar, ampicillin, amoxicillin, cefepime, CAZ, imipenem, meropenem, piperacillin, and tazobactam were obtained from Sigma-Aldrich (St. Louis, MO). Nitrocefin was purchased from Merck (Darmstadt, Germany). The characteristics of the clinical E. coli strain 50579417 harboring the OXA-48 plasmid (p50579417_3_OXA-48) have been described previously ([61], [62]). The plasmid p50579417_3_OXA-48 was conjugated into rifampin-resistant E. coli TOP10 and subsequently isolated using a plasmid mini-purification kit (Qiagen, Germany). E. coli MG1655 (DA4201) was electroporated with p50579417_3_OXA-48 as published previously ([63]). Transformants positive for blaOXA-48 were checked by PCR using REDTaq ready mix (Sigma-Aldrich, St. Louis, MO) and preOXA-48 primers ([61]).
as §1

[8] = tested on: MP103 (MP101 subjected to CAZ-AVI); experiment: MIC determination, MP103 (MP101 selected on CAZ-AVI); assay type: cell-based, Escherichia coli
Protocol: as §2, §1

E. coli TOP10 = experiment: microbe, parasite or virus in culture; assay type: cell-based; details: Escherichia coli, Table 3, read-out: MIC
Protocol: as §1

[9] = tested on: MP104 (E. coli TOP10 expressing native OXA-48); experiment: MIC determination, TOP10 expressing native OXA-48 (MP104); assay type: cell-based; details: Escherichia coli; Table 3; MP104, native OXA-48 in pCR-blunt II TOPO
Protocol: as §1
For a functional resistance profile, the native and mutated blaOXA-48 genes were cloned in the pCR-blunt II-TOPO vector (Invitrogen, CA) and expressed in E. coli TOP10 (Invitrogen, CA). The PCR product was obtained by Phusion High Fidelity PCR mastermix with High Fidelity buffer (New England Biolabs, MA) and preOXA-48 primers ([61]). Transformants were selected on LB agar plates containing 50 or 100 mg/liter ampicillin. Insertion size was verified by Sanger sequencing using M13 forward (5′-[…]-3′) and reverse (5′-[…]-3′) primers.

[10] = Escherichia coli, MG1655, Table 6, MP100, read-out: MIC
[11] = Escherichia coli, Table 6, MP101, native plasmid, read-out: MIC

T1 sequence (Q6XEC0 23-265 P68A): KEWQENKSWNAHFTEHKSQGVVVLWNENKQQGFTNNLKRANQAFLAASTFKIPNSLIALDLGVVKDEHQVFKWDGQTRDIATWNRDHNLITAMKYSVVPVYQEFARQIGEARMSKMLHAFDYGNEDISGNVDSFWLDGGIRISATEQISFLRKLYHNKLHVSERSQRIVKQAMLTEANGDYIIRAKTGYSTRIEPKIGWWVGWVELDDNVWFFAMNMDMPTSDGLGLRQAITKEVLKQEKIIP

**Q.** What does the source list for `CC1(C)S[C@@H]2[C@H](NC(=O)[C@H](N)c3ccccc3)C(=O)N2[C@H]1C(=O)O` [AMP, ampicillin]?
**A.** kcat (OXA-48:P68A [1]): 25 ± 1 s⁻¹; Km (OXA-48:P68A [1]; read-out: Km): 77 ± 12 µM

**Q.** `NC(=O)[C@@H]1CC[C@@H]2CN1C(=O)N2OS(=O)(=O)O` [Avibactam, avibactam] was tested. Which “change in the inhibitory activity” value (OXA-48:P68A [2]) did it give?
**A.** Its value is “no change”.

**Q.** Which MIC (E. coli MG1655 (MP100); Escherichia coli, MG1655, Table 2, strain MP100, duplicates, read-out: MIC) does the source give for `CC(C)(O/N=C(\C(=O)N[C@@H]1C(=O)N2C(C(=O)[O-])=C(C[n+]3ccccc3)CS[C@H]12)c1csc(N)n1)C(=O)O` [CAZ, ceftazidime] here?
**A.** The MIC was 0.25 µg/mL (≈ 0.457 µM).

**Q.** And the MIC (E. coli MG1655 (MP100); Table 6, MP100)?
**A.** The MIC was 0.25 µg/mL (≈ 0.457 µM).

**Q.** What about the MIC ([3]; Escherichia coli, Table 2, strain MP102, after two-step CAZ selection) of the same molecule?
**A.** Its MIC is 32 µg/mL.

**Q.** What about the “MIC increase after CAZ selection” value ([3]; MP102 versus MP101) of the same molecule?
**A.** The value was 128 fold.

**Q.** What about the MIC [4] of the same molecule?
**A.** Its MIC is 16 µg/mL (≈ 29.3 µM).

**Q.** What about the MIC [5] of the same molecule?
**A.** Its MIC is 16 µg/mL (≈ 29.3 µM).

**Q.** And the “MIC increase by P68A substitution” value ([5]; MP105 versus native OXA-48 (MP104))?
**A.** The value was 32 fold.

**Q.** And the MIC [6]?
**A.** The MIC was 32 µg/mL (≈ 58.5 µM).

**Q.** And the “increased catalytic efficiency (kcat/Km)” value (OXA-48:P68A [1]; P68A compared to native OXA-48)?
**A.** Its value is over 10 fold.

**Q.** And the Km (OXA-48:P68A [1])?
**A.** Its Km is 220 ± 50 µM.

**Q.** And the kcat (OXA-48:P68A [1])?
**A.** Its kcat is 26 ± 3 s⁻¹.

**Q.** What about the MIC ([7]; Escherichia coli, Table 2, strain MP101, duplicates, read-out: MIC) of the same molecule?
**A.** The MIC was 0.25 µg/mL (≈ 0.457 µM).

**Q.** What about the MIC ([7]; Table 6, MP101, native plasmid) of the same molecule?
**A.** Its MIC is 0.25 µg/mL (≈ 0.457 µM).

**Q.** What about the MIC ([8]; Escherichia coli, Table 2, strain MP103, after two-step CAZ-AVI selection) of the same molecule?
**A.** Its MIC is 32 µg/mL.

**Q.** What about the “MIC increase after CAZ-AVI selection” value ([8]; MP103 versus MP101) of the same molecule?
**A.** The value was 128 fold.

**Q.** And the MIC (E. coli TOP10)?
**A.** Its MIC is 1 µg/mL (≈ 1.83 µM).

**Q.** And the MIC [9]?
**A.** The MIC was 0.5 µg/mL (≈ 0.915 µM).

**Q.** For `CO/N=C(\C(=O)N[C@@H]1C(=O)N2C(C(=O)O)=C(COC(N)=O)CS[C@H]12)c1ccco1` [CXM, cefuroxime], which MIC (E. coli MG1655 (MP100); [10]) is on record?
**A.** Its MIC is 8 µg/mL (≈ 18.9 µM).

**Q.** And the MIC [4]?
**A.** The MIC was 16 µg/mL (≈ 37.7 µM).

**Q.** And the MIC [5]?
**A.** The MIC was 16 µg/mL (≈ 37.7 µM).

**Q.** And the MIC [6]?
**A.** The MIC was 8 µg/mL (≈ 18.9 µM).

**Q.** And the MIC [7, 11]?
**A.** Its MIC is 16 µg/mL (≈ 37.7 µM).

**Q.** What about the MIC (E. coli TOP10) of the same molecule?
**A.** Its MIC is 16 µg/mL (≈ 37.7 µM).

**Q.** And the MIC [9]?
**A.** The MIC was 16 µg/mL (≈ 37.7 µM).

**Q.** What does the source list for `C[C@@H](O)[C@H]1C(=O)N2C(C(=O)O)=C(S[C@@H]3CN[C@H](CNS(N)(=O)=O)C3)[C@H](C)[C@H]12` [DOR, doripenem]?
**A.** MIC (E. coli MG1655 (MP100); [10]): 0.015 µg/mL (≈ 0.0357 µM); MIC [4]: 0.03 µg/mL (≈ 0.0713 µM); MIC [5]: 0.03 µg/mL (≈ 0.0713 µM); MIC [6]: 0.03 µg/mL (≈ 0.0713 µM); MIC [7, 11]: 0.03 µg/mL (≈ 0.0713 µM); MIC (E. coli TOP10): 0.03 µg/mL (≈ 0.0713 µM); MIC [9]: 0.03 µg/mL (≈ 0.0713 µM)

**Q.** For `C[C@@H](O)[C@H]1C(=O)N2C(C(=O)O)=C(S[C@@H]3CN[C@H](C(=O)Nc4cccc(C(=O)O)c4)C3)[C@H](C)[C@H]12` [ETP, ertapenem], which MIC (E. coli MG1655 (MP100); [10]) is on record?
**A.** Its MIC is 0.015 µg/mL (≈ 0.0315 µM).

**Q.** And the MIC [4]?
**A.** The MIC was 0.25 µg/mL (≈ 0.526 µM).

**Q.** What about the MIC [5] of the same molecule?
**A.** Its MIC is 0.06 µg/mL (≈ 0.126 µM).

**Q.** What about the MIC [6] of the same molecule?
**A.** Its MIC is 0.12 µg/mL (≈ 0.252 µM).

**Q.** And the MIC [7, 11]?
**A.** The MIC was 1 µg/mL (≈ 2.1 µM).

**Q.** What about the MIC (E. coli TOP10) of the same molecule?
**A.** The MIC was 0.015 µg/mL (≈ 0.0315 µM).

**Q.** What about the MIC [9] of the same molecule?
**A.** Its MIC is 1 µg/mL (≈ 2.1 µM).

**Q.** How did the MIC (E. coli MG1655 (MP100); [10]) turn out when `CO/N=C(\C(=O)N[C@@H]1C(=O)N2C(C(=O)[O-])=C(C[N+]3(C)CCCC3)CS[C@H]12)c1csc(N)n1` [FEP, cefepime] was run?
**A.** The MIC was 0.06 µg/mL (≈ 0.125 µM).

**Q.** And the MIC [4]?
**A.** Its MIC is 0.5 µg/mL (≈ 1.04 µM).

**Q.** And the MIC [5]?
**A.** The MIC was 0.25 µg/mL (≈ 0.52 µM).

**Q.** And the MIC [6]?
**A.** The MIC was 0.25 µg/mL (≈ 0.52 µM).

**Q.** What about the Km (OXA-48:P68A [1]) of the same molecule?
**A.** Its Km is 462 ± 126 µM.

**Q.** What about the kcat (OXA-48:P68A [1]) of the same molecule?
**A.** The kcat was 0.5 ± 0.1 s⁻¹.

**Q.** What about the MIC [7, 11] of the same molecule?
**A.** Its MIC is 0.25 µg/mL (≈ 0.52 µM).

**Q.** What about the MIC (E. coli TOP10) of the same molecule?
**A.** Its MIC is 0.06 µg/mL (≈ 0.125 µM).

**Q.** And the MIC [9]?
**A.** The MIC was 0.12 µg/mL (≈ 0.25 µM).
